Patent publication US10774122B2, “ERG targeted therapy” (The Regents of the University of Michigan, priority 2017, dated 2020)
Where two headings read alike, the source gives them in different places. Where a SMILES comes first, the peptide text is derived from it. Where no end group is shown, it is not given here. [ ]: non-standard residue; d: D form.

What was measured:
[1] = tested on: VCaP (ERG fusion-positive) xenografts; test: VCaP xenograft mouse model, tumor growth; conditions: 20 mg/kg dose, p<0.01
Description: Athymic Nude-Foxnlnu male mice were procured from Harlan Laboratories, Inc (Indianapolis, Ind.). All procedures involving mice were approved by the University Committee on Use and Care of Animals (UCUCA) at the University of Michigan and conformed to their relevant regulatory standards. […] Statistical significance for Kaplan-Meier analysis was determined by the log-rank (Mantel-Cox) test.
Athymic Nude-Foxnlnu male mice were procured from Harlan Laboratories, Inc. (Indianapolis, Ind.). VCaP (2×10^6 cells) or PC3 (5×10^5 cells) were resuspended in 100 μl of saline with 50% Matrigel (BD Biosciences, Becton Drive, NJ) and implanted subcutaneously into the flank regions on both sides of the mice. Mice were anesthetized using a cocktail of xylazine (80-120 mg/kg, IP) and ketamine (10 mg/kg, IP) for chemical restraint before tumor cells implantation. For short term assays, all tumors were staged for three weeks before starting peptidomimetic treatment. After week 3 (VCaP cells) or 12 days (PC3 cells), mice (10 per treatment group) were treated with peptidomimetics (25 mg/kg or 10 mg/kg as indicated, IP) daily five times a week.
Tumor growth was recorded every three days using digital calipers and tumor volumes were calculated using the formula (π/6) (L×W2), where L=length of tumor and W=width. Body weight was monitored weekly over the course of the study. At the end of the xenograft studies, mice were anaesthetized and blood was collected by cardiac puncture and tumors were preserved for further biochemical and immunofluorescence analysis. […] Survival analysis was carried out using the GraphPad Prism 4.0 software (GraphPad Software, San Diego, Calif.). Statistical significance for Kaplan-Meier analysis was determined by the log-rank (Mantel-Cox) test. All procedures involving mice were approved by the University Committee on Use and Care of Animals (UCUCA) at the University of Michigan and conform to their relevant regulatory standards.

ERG [2] = molecular target: T1, ERG (Homo sapiens, UniProt P11308); test: ERG:peptide binding by biolayer interferometry (OctetRED); conditions: for binding to ERG: OctetRED, result in words
T1 sequence (P11308 1-479): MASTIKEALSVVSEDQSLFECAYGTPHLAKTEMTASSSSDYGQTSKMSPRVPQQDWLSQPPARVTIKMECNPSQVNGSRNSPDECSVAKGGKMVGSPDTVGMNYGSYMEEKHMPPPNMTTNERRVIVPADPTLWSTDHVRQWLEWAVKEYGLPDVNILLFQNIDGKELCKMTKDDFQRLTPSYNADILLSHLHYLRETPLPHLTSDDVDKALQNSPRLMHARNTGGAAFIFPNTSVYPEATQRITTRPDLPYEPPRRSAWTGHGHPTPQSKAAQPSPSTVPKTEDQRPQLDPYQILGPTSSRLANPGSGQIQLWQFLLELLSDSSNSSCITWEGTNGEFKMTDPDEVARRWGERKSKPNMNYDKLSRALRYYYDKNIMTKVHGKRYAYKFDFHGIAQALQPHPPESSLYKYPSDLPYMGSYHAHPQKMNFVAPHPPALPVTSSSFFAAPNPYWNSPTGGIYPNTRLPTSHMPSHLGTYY
Description: The interaction coefficients between ERG and synthetic peptides or peptidomimetics were determined by biolayer interferometry technology using the Octet Red system (ForteBio). Purified ERG and GUS proteins were biotinylated by EZLink NHS-PEG4 Biotinylation Kit (Thermo Scientific) following the manufacturer's protocol and any unincorporated biotin was removed from the reactions with Zeba 2 ml desalt columns (Thermo). Biotinylated proteins (500 μg/ml) were then incubated with super streptavidin biosensors in binding buffer (20 mM HEPES pH 7.4, 150 mM NaCl), blocked with 10 μg/ml biocytin and washed three times in binding buffer. Peptides were serially diluted in binding buffer, mixed with the protein-coupled biosensors and peptidomimetic:protein association/dissociation was monitored for 10 min at 25° C. Nonspecific binding from the signal obtained from peptidomimetic:GUS interactions was subtracted from that of peptidomimetic:ERG interactions and baseline signal drift was controlled by monitoring immobilized ERG without peptide. Octet Red analysis software was used to analyze the data.

ERG [3] = molecular target: T2, ERG (Homo sapiens, UniProt P11308); test: Kd[μM]
T2 construct: cDNAs encoding full-length ERG and GUS were cloned into pDEST10 vector; His; made in house; host or cells: SF9 insect cells (Bac-to-Bac baculovirus)
Excerpt: Table printed on a drawing sheet, FIG. 13
Head of the field: Kd[μM]
Where the first naming reader finds the target: passage: Capping of the EIP1 peptide at both the N- and C-terminus abolished binding to ERG (FIG. 13).

ERG [4] = molecular target: T2, ERG; test: Kd[μM]; remark: listed apart in the source
Excerpt: Table printed on a drawing sheet, FIG. 14 Head of the field: Kd[μM] […] Where the first naming reader finds the target: passage: the importance of the PYL residues for binding to ERG was identified

ERG:DNA-PKcs interaction [5] = molecular target: T3, ERG:DNA-PKcs interaction (Homo sapiens, UniProt P11308); test: In vitro peptide competitive pull-down assay (cell-free); conditions: Halo-ERG with purified DNA-PKcs, increasing peptide concentrations
T3 sequence (P11308 1-479): T1 sequence (P11308 1-479)
Description: (§1) Halo-ERG fusion protein was expressed using in vitro transcription/translation system as described above. […] Protein mixtures were incubated with or without the peptides in PBS-T (0.1% Tween) at 4° C. overnight. Simultaneously, HaloLink beads (Promega) were blocked in 5% BSA at 4° C. overnight. The next day 10 μl of HaloLink beads were mixed with the protein-peptide mixture, incubated at RT for 1 hour, washed with 4× in PBS-T and eluted into SDS sample buffer. […] HaloLink beads without incubation with fusion proteins were used as negative controls.

ERG:AR interaction [6] = molecular target: T4, ERG:AR interaction (Homo sapiens, UniProt P11308); test: as above; conditions: Halo-ERG with recombinant AR, increasing peptide concentrations
T4 sequence (P11308 1-479): T1 sequence (P11308 1-479)
Description: as §1

PC3-ERG cells = test: Boyden chamber basement membrane matrix invasion assay
Description: (§2) Complete media was added to the lower chamber as a chemoattractant. […] Invasive cells, located on the lower side of the membranes, were stained with crystal violet, air dried and photographed. To quantify the relative number of invaded cells, colorimetric assays were performed by treating the inserts with 150 μl of 10% acetic acid (v/v) and measuring absorbance of each sample in a spectrophotometer at 560 nm (GE Healthcare).
ERG:AR interaction [7] = molecular target: ERG:AR interaction (Homo sapiens, UniProt P11308); test: IP-Western blot in VCaP cells
Description: (§3) VCaP cells were seeded in 6-well plates at 0.5×10^6 cells/ml and after allowing cells to attach, cells were harvested and homogenized in NP40 lysis buffer (Sigma) containing a complete protease inhibitor cocktail (Roche). Ten micrograms of each protein extract was boiled in SDS sample buffer, size fractionated by SDS-PAGE, and transferred onto a PVDF membrane (GE Healthcare). […] Following three washes in TBS-T, the blots were incubated with horseradish peroxidase conjugated secondary antibody and the signals visualized by enhanced chemiluminescence system according to manufacturer's instructions (GE Healthcare).
(§4) Cell pellets or tumors treated with or without the peptidomimetics were lysed in cell lysis buffer (20 mM MOPS, pH 7.0, 2 mM EGTA, 5 mM EDTA, 30 mM sodium fluoride, 60 mM β-glycerophosphate, 20 mM sodium pyrophosphate, 1 mM sodium orthovanadate, 1% Triton X-100, 1 mM DTT, protease inhibitor cocktail (Roche)). Cell lysates (0.5-1.0 mg) were pre-cleaned with protein A/G agarose beads (Santa Cruz) by incubation for 1 hour with shaking at 4° C. followed by centrifugation at 2000 rpm for 3 minute. Lysates were then incubated with 2 μg ERG antibody (Santa Cruz, C-17) at 4° C. for 4 hours with shaking prior to addition of 20 μl protein A/G agarose beads and incubated at 4° C. overnight. […] Samples were then analyzed by SDS-PAGE and Western blot analysis as described above.
ERG:DNA-PKcs interaction [8] = molecular target: T5, ERG:DNA-PKcs interaction (Homo sapiens, UniProt P11308); test: IP-Western blot in VCaP cells
T5 sequence (P11308 33-479 limits assumed): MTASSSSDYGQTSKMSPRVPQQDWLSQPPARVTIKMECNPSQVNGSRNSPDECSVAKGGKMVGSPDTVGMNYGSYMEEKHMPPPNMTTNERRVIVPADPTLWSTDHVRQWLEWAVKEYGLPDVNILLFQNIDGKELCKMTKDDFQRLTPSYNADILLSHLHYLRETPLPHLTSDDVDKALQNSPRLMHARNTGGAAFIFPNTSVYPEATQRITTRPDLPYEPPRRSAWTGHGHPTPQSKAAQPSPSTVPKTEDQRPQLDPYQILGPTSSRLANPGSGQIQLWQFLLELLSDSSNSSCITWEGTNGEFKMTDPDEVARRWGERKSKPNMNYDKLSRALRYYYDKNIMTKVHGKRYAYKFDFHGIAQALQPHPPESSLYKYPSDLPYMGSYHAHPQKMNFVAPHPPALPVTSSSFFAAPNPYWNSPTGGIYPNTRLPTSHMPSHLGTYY
Description: as §3, §4

RWPE1-ERG cells = test: Boyden chamber basement membrane matrix invasion assay
Description: as §2

[9] = molecular target: T6, TMPRSS2:ERG gene fusion product (endogenous ERG) (Homo sapiens, UniProt P11308); test: Biotin-peptide pull-down from VCaP cell lysates, immunoblot and mass spectrometry; assay type: binding; conditions: 53 kDa band of pull-downs, mass spectrometry
T6 construct: endogenous in cells; host or cells: VCaP cells (ATCC): cultured cells, lysates or extracts, or VCaP xenograft tumours in nude mice
Description: Approximately 1 mg of soluble VCaP cell lysate prepared in RIPA buffer (Invitrogen) was incubated with varying amounts of biotinylated peptides for 2 hours at 4° C. HaloLink agarose beads (20 μl) were added to the peptide-lysate mixture and incubated for an additional 4 hours. Beads were then pelleted by centrifugation, washed three times in PBS-T and loaded into an SDSPAGE gel followed by Western blot analysis. Total VCaP cell lysate was loaded for positive control.
The samples were treated with SDS loading buffer supplied with 10 mM DTT for 5 min at 85° C. The proteins were alkylated by adding iodoacetamide to the final concentration of 15 mM. The samples were subjected to SDS-PAGE and the whole lanes were cut out and digested with trypsin in-gel for 2 hours. […]
The resulting spectrum files were transformed into MGF format by MSConvert software and interrogated by MASCOT 2.4 search engine using human UniProt database version 15 concatenated with reverse sequences for estimation of false discovery rate (FDR) and with a list of common contaminants. […] The peptide FDR was calculated as 2×(decoy_hits)/(target+decoy hits). Spectral counts for all detected proteins were assembled using an in-house written Python script. […]

[10] = tested on: Ewing sarcoma cells containing the EWS-ERG fusion; assay type: cell-based
Excerpt: (A) Pull down of ERG in Ewing sarcoma cells containing a EWS-ERG fusion and reduced tumor growth in xenografts models of Ewing sarcoma. (B) Tumors containing the EWS-FLI1 fusion or osteosarcomas (A204) are not affected by treatments with peptides of the disclosure. […] Similarly, invasion potential was reduced by EIP1 and EIP2 treatment in Ewing sarcoma cells containing the EWS-ERG fusion.

ERG:AR interaction [11] = molecular target: T4, ERG:AR interaction
Description: as §1
ERG:DNA-PKcs interaction [12] = molecular target: T3, ERG:DNA-PKcs interaction
Description: as §1

[13] = tested on: cells containing the EWS-FLI1 fusion; test: DNA damage in Ewing sarcoma cells; assay type: cell-based

With `CC(C)C[C@@H](NC(=O)[C@@H](CO)NC(=O)[C@@H](Cc1ccccc1)NC(=O)CNC(=O)[C@@H](CO)NC(=O)[C@@H](CC(C)C)NC(=O)[C@H]1CCCN1C(=O)CNC(=O)CNC(=O)[C@@H](CCCNC(=N)N)NC(=O)[C@@H](CCCCN)NC(=O)[C@@H](CCCCN)NC(=O)[C@@H](CCCNC(=N)N)NC(=O)[C@@H](CCCNC(=N)N)NC(=O)[C@@H](CCC(N)=O)NC(=O)[C@@H](CCCNC(=N)N)NC(=O)[C@@H](CCCNC(=N)N)NC(=O)[C@@H](CCCNC(=N)N)NC(=O)CN)C(=O)O` [RI-EIP2] (H-G[dR][dR][dR][dQ][dR][dR][dK][dK][dR]GG[dP][dL][dS]G[dF][dS][dL]-OH) the “tumor growth of VCaP xenografts” value [1] was “significantly delayed tumor growth” and the Kd (ERG [2]) was 1.28 µM.

Molecule “Ac-LPPELFT-NH2 [7LT-4E, Ac- LPPELFT -NH2]” has a Kd (ERG [3]) of 3.6 µM.

Molecule Ac-LPPYLF-NH2 [6LF-A, Ac- LPPYLF -NH2] has a Kd (ERG [4]) greater than 100 µM.

With FTFGSLP [FTFGSLP] the Kd (ERG [2]) was 3.9 µM.

H-PPYLFT-NH2 [6PT-N, H2N- PPYLFT -NH2] gave a Kd (ERG [4]) of 11.5 µM.

In the case of LPPALFT [muEIP1, LPPALFT], the “disruption of direct ERG:DNA-PKcs interaction” value (ERG:DNA-PKcs interaction [5]) is reported as “not”, the “binding to ERG” value (ERG [2]) is reported as “failed to bind” and the “disruption of direct ERG:AR interaction” value (ERG:AR interaction [6]) is reported as “not”.

In the case of “LPPTFLY [Scr, LPPTFLY, reference compound]”, the “binding to ERG” value (ERG [2]) is reported as “failed to bind”.

With LPPYLFTGGRKKRRQRRRG [TAT-EIP1] the “PC3 cell invasion driven by overexpression of ERG” value (PC3-ERG cells) was “inhibited”, the “block of ERG:AR interaction in VCaP cells” value (ERG:AR interaction [7]) was “significantly blocked” and the “block of ERG:DNA-PKcs interaction in VCaP cells” value (ERG:DNA-PKcs interaction [8]) was “significantly blocked”. The “invasion of RWPE1-ERG cells” value (RWPE1-ERG cells) was “significantly attenuated”.

With LRFGTLP [LRFGTLP] the Kd (ERG [2]) was 7.9 µM.

With “LSAGSAP [muEIP2, LSAGSAP, reference compound]” the “spectral counts for the ERG peptide NTGGAAFIFPNTSVYPEATQR” value [9] was 2 spectral counts and the “binding to ERG” value (ERG [2]) was “failed to bind”.

For LSFGSLP [EIP2, LSFGSLP], the “DNA damage caused by oncogenic ERG (EWS-ERG fusion)” value [10] was “reduce DNA damage”, the invasion potential [10] was “reduced” and the “disruption of direct ERG:AR interaction” value (ERG:AR interaction [11]) was “disrupted”. The “disruption of direct ERG:DNA-PKcs interaction” value (ERG:DNA-PKcs interaction [12]) was “disrupted” and the “DNA damage in cells containing the EWS-FLI1 fusion” value [13] was “no effect”.

With LSFGSLPGGRKKRRQRRRG [TAT-EIP2] the “PC3 cell invasion driven by overexpression of ERG” value (PC3-ERG cells) was “inhibited”, the “block of ERG:AR interaction in VCaP cells” value (ERG:AR interaction [7]) was “significantly blocked” and the “block of ERG:DNA-PKcs interaction in VCaP cells” value (ERG:DNA-PKcs interaction [8]) was “significantly blocked”. The “invasion of RWPE1-ERG cells” value (RWPE1-ERG cells) was “significantly attenuated”.
